Test results: US7655671B2, “Morphinan derivatives, the quaternary ammonium salts thereof substituted in position 14, method for production and use thereof” (priority 2002, dated 2010)
Where a name gives a salt, the structure may show the parent alone.

Columns and labels:
[1] = system: mice; experiment: Hot-plate test (analgesia); type: in vivo, mouse; details: Mus musculus, sc, subcutaneous application, read-out: ED50 (μg/kg, sc)
Procedure: A test on mice (“hot-plate test”) was carried out as described earlier (E. L. May et al., J. Med. Chem. 2000; 43, 5030-5036).

[2] = target: T1, μ-opioid receptors (Rattus norvegicus, UniProt P33535); experiment: Opioid receptor binding studies on rat's brain homogenisates with [3H]DAMGO
T1 construct: from tissue; host or cells: rat brain homogenate
T1 sequence (P33535 whole entry): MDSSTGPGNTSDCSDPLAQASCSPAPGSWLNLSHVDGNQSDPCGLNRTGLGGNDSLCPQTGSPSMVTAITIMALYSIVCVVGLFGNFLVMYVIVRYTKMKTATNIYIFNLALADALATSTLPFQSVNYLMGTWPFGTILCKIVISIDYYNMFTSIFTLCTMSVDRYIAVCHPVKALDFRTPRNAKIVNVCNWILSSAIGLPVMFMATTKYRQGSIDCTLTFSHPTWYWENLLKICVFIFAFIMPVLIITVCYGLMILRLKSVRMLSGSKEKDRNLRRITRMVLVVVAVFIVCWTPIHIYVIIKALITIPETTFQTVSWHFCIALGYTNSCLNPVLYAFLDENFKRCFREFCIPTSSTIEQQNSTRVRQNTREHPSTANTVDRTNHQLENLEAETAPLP

Compound	melting point	ED50 [1]	Ki [2]
C=CCN1CC[C@]23c4c5ccc(OC)c4O[C@H]2C(=O)CC[C@@]3(OCCCc2ccccc2)C1C5	129 to 130 °C		
CCN1CC[C@]23c4c5ccc(OC)c4O[C@H]2C(=O)CC[C@@]3(OCCCc2ccccc2)[C@H]1C5	95 to 101 °C		
COc1ccc2c(c1O)[C@]13CCN(C)[C@H](C2)[C@]1(OCCCc1ccccc1)CCC(=O)C3	> 258 °C (dec.)		
COc1ccc2c(c1OC)[C@]13CCN(C)C(C2)[C@]1(OCCCc1ccccc1)CCC(=O)C3	110 to 115 °C		
CCO[C@@]12CCC(=O)[C@@H](C)[C@@]13CCN(C)[C@@H]2Cc1ccc(OC)c(O)c13	122 to 129 °C		
CCO[C@@]12CCC(=O)[C@@H](C)[C@@]13CCN(C)C2Cc1ccc(OC)c(OC)c13	135 to 141 °C		
COc1ccc2c(c1OC)[C@]13CCN(C)C(C2)[C@]1(O)CCC(=O)[C@H]3C	122 to 124 °C		
COc1ccc2c(c1OC)[C@]13CCN(C)[C@H](C2)[C@]1(OCc1ccccc1)CCC(=O)[C@H]3C	166 to 167 °C		
CC[N@@+]1(C)CC[C@]23c4c5ccc(O)c4O[C@H]2C(=O)CC[C@@]3(OCCCc2ccccc2)[C@H]1C5.[I-]	171 to 176 °C		
CCCCOC12CCC(=O)C3(Cc4ccccc4)Oc4c(O)ccc5c4[C@@]31CC[N+](C)(C)C2C5.[I-] (stereo partly drawn)	188 to 195 °C		
C=CC[N@+]1(C)CC[C@]23c4c5ccc(O)c4OC2(Cc2ccccc2)C(=O)CCC3(OCCCC)C1C5.[I-] (stereo partly drawn)	200 to 205 °C		
CCCCO[C@@]12CCC(=O)[C@@H]3Oc4c(O)ccc5c4[C@@]31CC[N+](C)(C)[C@@H]2C5.[I-]	180 to 185 °C		
C[N@+]1(CC2CC2)CC[C@]23c4c5ccc(O)c4O[C@H]2C(=O)CC[C@@]3(OCc2ccccc2-c2ccccc2)[C@H]1C5.[I-]	219 to 221 °C		
C[N@+]1(CC2CC2)CC[C@]23c4c5ccc(O)c4O[C@H]2C(=O)CC[C@@]3(OCc2ccc(Cl)cc2)[C@H]1C5.[I-]	214 to 219 °C		
COC12CCC(=O)C3Oc4c(O)ccc5c4[C@@]31CC[N@+](C)(CCc1ccccc1)C2C5.[I-] (stereo partly drawn)	180 to 181 °C		
O=C1CC[C@@]2(OCc3ccccc3)[C@H]3Cc4ccc(O)c5c4[C@@]2(CCN3CC2CC2)[C@H]1O5 (as salt: hydrobromid)	> 210 °C (dec.)		
Cc1ccccc1CO[C@@]12CCC(=O)[C@@H]3Oc4c(O)ccc5c4[C@@]31CCN(CC1CC1)[C@@H]2C5 (as salt: hydrochloride)	198 to 200 °C		
O=C1CC[C@@]2(OCc3ccccc3Cl)[C@H]3Cc4ccc(O)c5c4[C@@]2(CCN3CC2CC2)[C@H]1O5 (as salt: hydrochloride)	165 to 168 °C		
CCCCO[C@@]12CCC(=O)[C@@H]3Oc4c(O)ccc5c4[C@@]31CCN(CC1CC1)[C@@H]2C5 (as salt: hydrochloride)	240 °C (dec.)		
CC(C)CCO[C@@]12CCC(=O)[C@@H]3Oc4c(O)ccc5c4[C@@]31CCN(CC1CC1)[C@@H]2C5 (as salt: hydrochloride)	168 to 170 °C		
CC#COc1ccc2c3c1O[C@H]1C(=O)CC[C@@]4(OCc5cccc(Cl)c5)C(C2)N(C)CC[C@]314 (as salt: hydrochloride)	145 to 150 °C		
COc1ccc2c3c1O[C@H]1C(=O)CC[C@@]4(OCCCc5ccccc5)[C@@H](C2)N(CC2CCC2)CC[C@]314 (as salt: hydrochloride)	128 to 133 °C		
CCN1CC[C@]23c4c5ccc(O)c4O[C@H]2C(=O)CC[C@@]3(OCCCc2ccccc2)[C@H]1C5 (as salt: hydrochloride)	178 to 180 °C		
CCCN1CC[C@]23c4c5ccc(O)c4O[C@H]2C(=O)CC[C@@]3(OCCC(C)C)[C@H]1C5 (as salt: hydrochloride)	175 to 185 °C (dec.)		

Compound	melting point	ED50 [1]	Ki [2]
COc1ccc2c(c1O)[C@]13CCN(C)[C@H](C2)[C@]1(OCc1ccccc1)CCC(=O)C3 (as salt: hydrochloride)	> 220 °C (dec.)		
COc1ccc2c(c1OC)[C@]13CCN(C)[C@H](C2)[C@]1(OCc1ccccc1)CCC(=O)C3 (as salt: hydrochloride)	140 to 145 °C		
COc1ccc2c(c1O)[C@]13CCN(C)[C@H](C2)[C@]1(OCc1ccc2ccccc2c1)CCC(=O)C3 (as salt: hydrochloride)	195 to 197 °C		
COc1ccc2c3c1O[C@H]1C(=O)CC[C@@]4(OCCCc5ccccc5)[C@@H](C2)N(CC2CC2)CC[C@]314 (as salt: hydrochloride)	130 to 133 °C		
COc1ccc2c(c1OC)[C@]13CCN(C)[C@H](C2)[C@]1(OCc1ccc2ccccc2c1)CCC(=O)C3 (as salt: hydrochloride)	165 to 170 °C		
COc1ccc2c(c1O)[C@]13CCN(C)[C@H](C2)[C@]1(OCCCc1ccccc1)CCC(=O)[C@H]3C (as salt: hydrochloride)	> 210 °C (dec.)		
COc1ccc2c3c1O[C@H]1C(=O)CC[C@@]4(OCCCc5ccccc5)C(C2)N(CC2CCCO2)CC[C@]314 (stereo partly drawn) (as salt: hydrochloride)	121 to 123 °C		
COc1ccc2c3c1O[C@H]1C(=O)CC[C@@]4(OCCCc5ccccc5)[C@@H](C2)N(CCc2ccccc2)CC[C@]314 (as salt: hydrochloride) [Compound 4, 4,5α-epoxy-3-methoxy-17-(2-phenylethyl)-14β-(3-phenylpropyloxy)morphinan-6-one hydrochloride]	128 to 130 °C		
O=C1CC[C@@]2(OCCCc3ccccc3)[C@H]3Cc4ccc(O)c5c4[C@@]2(CCN3CC2CCC2)[C@H]1O5 (as salt: hydrochloride) [Compound 7, 17-cyclobutylmethyl-4,5α-epoxy-3-hydroxy-14β-(3-phenylpropyloxy)morphinan-6-one hydrochloride]	> 227 °C (dec.)		
O=C1CC[C@@]2(OCCCc3ccccc3)[C@H]3Cc4ccc(O)c5c4[C@@]2(CCN3CCc2ccccc2)[C@H]1O5 (as salt: hydrochloride) [Compound 9, 4,5α-epoxy-3-hydroxy-17-(2-phenylethyl)-14β-(3-phenylpropyloxy)morphinan-6-one hydrochloride]	> 218 °C (dec.)		
O=C1CC[C@@]2(OCCCc3ccccc3)C3Cc4ccc(O)c5c4[C@@]2(CCN3CC2CCCO2)[C@H]1O5 (stereo partly drawn) (as salt: hydrochloride) [Compound 10, 4,5α-epoxy-17-[2-((R,S)-tetrahydrofuran-2-yl)methyl]-3-hydroxy-14β-(3-phenylpropyloxy)morphinan-6-one hydrochloride]	170 to 172 °C		
COc1ccc2c(c1O)[C@]13CCN(C)[C@H](C2)[C@]1(O)CCC(=O)[C@H]3C (stereo in doubt)	> 185 °C (dec.)		
CCCCOc1cccc2c1[C@]13CC[N@@H+](CC4CC4)C(C2)[C@]1(OCCCc1ccccc1)CCC(=O)C3.[Cl-] (stereo in doubt)	172 to 177 °C		
COc1ccc2c3c1O[C@@]1(Cc4ccccc4)C(=O)C=C[C@@]4(OC)[C@@H](C2)N(C)CC[C@]314 (stereo in doubt) (as salt: hydrochloride)	164 to 166 °C		
O=C1CC[C@@]2(OCCCc3ccccc3)[C@H]3Cc4ccc(O)c5c4[C@@]2(CCN3CCc2ccccc2)[C@H]1O5 [Compound 9, 4,5α-epoxy-3-hydroxy-17-(2-phenylethyl)-14β-(3-phenylpropyloxy)morphinan-6-one hydrochloride]		11.7 µg/kg	
C[N@+]1(CC2CCCO2)CC[C@]23c4c5ccc(O)c4OC2C(=O)CCC3(OCCCc2ccccc2)C1C5.[I-] (stereo partly drawn) [Compound 40, (17R)-4,5α-epoxy-3-hydroxy-17-methyl-6-oxo-14β-[(3-phenylpropyl)oxy]-17-[(2-R,S-tetrahydrofurfuran-2-yl)methyl]morphinanium-iodide]	156 to 159 °C		0.37 nM
C=CC[N@@+]1(C)CC[C@]23c4c5ccc(O)c4O[C@H]2C(=O)CC[C@@]3(OCC)[C@H]1C5.[I-] [Compound 41, (17R)-17-allyl-4,5α-epoxy-14β-ethoxy-3-hydroxy-17-methyl-6-oxomorphinanium-iodide]	130 to 134 °C		2.32 nM
C=CC[N@+]1(C)CC[C@]23c4c5ccc(O)c4O[C@H]2C(=O)CC[C@@]3(OC)[C@H]1C5.[I-] [Compound 43, (17S)-17-allyl-4,5α-epoxy-3-hydroxy-14β-methoxy-17-methyl-6-oxomorphinanium-iodide]	> 140 °C		1.33 nM
COc1ccc2c3c1O[C@H]1C(=O)CC[C@@]4(OCCCc5ccccc5)[C@@H](C2)[N@@+](C)(CC2CC2)CC[C@]314.[I-] [Compound 49, (17R)-17-cyclopropylmethyl-4,5α-epoxy-3-methoxy-17-methyl-6-oxo-14β-[(3-phenylpropyl)oxy]morphinanium-iodide]	133 to 136 °C		1.78 nM
O=C1CC[C@@]2(OCCCc3ccccc3)[C@H]3Cc4cccc5c4[C@@]2(CC[N@H+]3CC2CC2)[C@H]1O5.[Cl-] [Compound 54, 17-(cyclopropylmethyl)-4,5α-epoxy-14β-[(3-phenylpropyl)oxy]morphinan-6-one hydrochloride]	145 to 150 °C		0.84 nM
O=C1CC[C@@]2(OCCCc3ccccc3)[C@H]3Cc4cccc(O)c4[C@@]2(CC[N@H+]3CC2CC2)C1.[Cl-] [Compound 55, 17-(cyclopropylmethyl)-4-hydroxy-14β-[(3-phenylpropyl)oxy]morphinan-6-one hydrochloride]	> 170 °C (dec.)		0.4 nM
COc1cccc2c1[C@]13CC[N@@H+](CC4CC4)[C@H](C2)[C@]1(OCCCc1ccccc1)CCC(=O)C3.[Cl-] [Compound 56, 17-(cyclopropylmethyl)-4-methoxy-14β-[(3-phenylpropyl)oxy]morphinan-6-one hydrochloride]	121 to 126 °C		0.34 nM
COc1cccc2c1[C@]13CCN(CC4CC4)[C@H](C2)[C@]1(OC)CCC(=O)C3 [Cyprodime, cyprodime, reference compound]			23.7 nM
